Measurements: US5235061A, “Fungicidal (1H-1,2,4-triazolyl)disilaalkanes” (priority 1991, dated 1993)

Legend:
Test in all cases: In vitro percent disease control (radii of spore growth on agar)
Assay type in all cases: cell-based
Fusarium moniliforme = tested on: Fusarium moniliforme
In short: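 Compounds in 10% acetone/water at 100 and 50 ppm were mixed into potato-sucrose-agar, with Fusarium moniliforme spotted centrally. After several days' incubation, percent disease control was derived from radii of spore growth.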

Botry tris cinerea = details: for inhibition of growth at 50 ppm / inhibition of growth at 100 ppm: read-out: % controlled, Bo ci.
In short: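 Compounds at 100 and 50 ppm (acetone 10% of final volume, rest water) mixed into potato-sucrose agar; Botrytis cinerea spotted at dish centre. After several days' incubation, percent disease control calculated from radii of spore growth.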

[1] = tested on: Botryosphaeria dothidea Macrophoma sp.; details: for inhibition of growth at 50 ppm / inhibition of growth at 100 ppm: Botryosphaeria dothidea, read-out: % controlled, Bo.do (Ma.)
In short: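 Compounds (100 and 50 ppm, 10% acetone in water) were mixed into potato-sucrose-agar and the fungus was spotted centrally, then incubated several days in a growth room. Percent disease control came from radii of spore growth.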

Glomerella cingulata = details: for inhibition of growth at 50 ppm / inhibition of growth at 100 ppm: Colletotrichum gloeosporioides, read-out: % controlled, Glo.
In short: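 Compounds were dissolved in acetone (10% of final volume) plus water at 100 ppm and 50 ppm and mixed into potato-sucrose agar. G. cingulata was spotted centrally and incubated for several days in a growth room. Percent disease control was derived from the radii of spore growth.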

Pyricalaria oryzae = details: for inhibition of growth at 50 ppm: read-out: % controlled, Py. or., 50 ppm; for inhibition of growth at 100 ppm: read-out: % controlled, Py. or., 100 ppm
In short: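 Compounds at 100 ppm and 50 ppm (10% acetone in water) mixed into potato-sucrose-agar, P. oryzae spotted centrally and incubated several days. Percent disease control derived from radii of spore growth.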

Phytophthora capsisi = details: for inhibition of growth at 50 ppm / inhibition of growth at 100 ppm: Phytophthora, read-out: % controlled, Phy ca.
In short: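 Compounds dissolved in acetone (10% of final volume) then water at 100 ppm and 50 ppm, mixed into potato-sucrose-agar; fungus spotted at plate centre and incubated several days. Percent disease control derived from radii of spore growth.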

Physalospora baccae = details: for inhibition of growth at 50 ppm / inhibition of growth at 100 ppm: read-out: % controlled, Phy ba.
In short: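 Compounds at 100 and 50 ppm (10% acetone) mixed into potato-sucrose-agar, fungus spotted centrally and grown several days in a growth room. Percent disease control derived from radii of spore growth.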

Rhizopus sp. = details: for inhibition of growth at 50 ppm / inhibition of growth at 100 ppm: Rhizopus, read-out: % controlled, Rhi. sp.
In short: (§1)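 Compounds in acetone (10% of final volume) diluted with water to 100 and 50 ppm, then mixed into potato-sucrose-agar with each fungus spotted centrally. Incubated several days in a growth room; percent disease control derived from radii of spore growth.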

Alternaria mali = details: for inhibition of growth at 50 ppm / inhibition of growth at 100 ppm: Alternaria mali, read-out: % controlled, Al.
In short: as §1

Rhizoctonia solani = details: for inhibition of growth at 50 ppm / inhibition of growth at 100 ppm: Rhizoctonia solani, read-out: % controlled, Rhy. so.
In short: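 Test compounds at 100 ppm and 50 ppm (acetone 10% of final volume, then water) were mixed into potato-sucrose-agar, and the fungus was spotted at the dish centre. Dishes were incubated several days in a growth room. Percent disease control was derived from the radii of spore growth.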

Compound | % controlled, Fu. mo. (Fusarium moniliforme; 50 ppm) | % controlled, Fu. mo. (Fusarium moniliforme; 100 ppm) | inhibition of growth at 50 ppm (Botry tris cinerea; 50 ppm) | inhibition of growth at 100 ppm (Botry tris cinerea; 100 ppm) | inhibition of growth at 50 ppm ([1]; 50 ppm) | inhibition of growth at 100 ppm ([1]; 100 ppm) | inhibition of growth at 50 ppm (Glomerella cingulata; 50 ppm) | inhibition of growth at 100 ppm (Glomerella cingulata; 100 ppm) | inhibition of growth at 50 ppm (Pyricalaria oryzae) | inhibition of growth at 100 ppm (Pyricalaria oryzae) | inhibition of growth at 50 ppm (Phytophthora capsisi; 50 ppm) | inhibition of growth at 100 ppm (Phytophthora capsisi; 100 ppm) | inhibition of growth at 50 ppm (Physalospora baccae; 50 ppm) | inhibition of growth at 100 ppm (Physalospora baccae; 100 ppm) | inhibition of growth at 50 ppm (Rhizopus sp.; 50 ppm) | inhibition of growth at 100 ppm (Rhizopus sp.; 100 ppm) | inhibition of growth at 50 ppm (Alternaria mali; 50 ppm) | inhibition of growth at 100 ppm (Alternaria mali; 100 ppm) | inhibition of growth at 50 ppm (Rhizoctonia solani; 50 ppm) | inhibition of growth at 100 ppm (Rhizoctonia solani; 100 ppm) | other results
COc1ccc([Si](C)(Cn2cncn2)C[Si](C)(C)c2ccc(Cl)cc2)cc1 (stereo not shown) [4-(4-chlorophenyl)-2-(4-methoxyphenyl)-2,4-dimethyl-2,4-disila-1-(1H-1,2,4-triazol-1-yl)pentane] | 28% | 41% | 40% | 80% | 34% | 66% | 56% | 82% | 100% | 100% | 43% | 59% | 50% | 60% | 32% | 48% | 30% | 62% | 100% | 100% | –
C=CC[Si](C[Si](CC)(Cn1cncn1)c1ccc(OCC)cc1)(c1ccc(F)cc1)c1ccc(F)cc1 (stereo not shown) [6-(4-ethoxyphenyl)-4,4-bis(4-fluorophenyl)-6-ethyl-4,6-disila-7-(1H-1,2,4-triazol-1-yl)-1-heptane] | 90% | 90% | – | – | – | – | – | – | – | – | – | – | – | – | – | – | – | – | – | – | % controlled, Bo ci. (Botry tris cinerea; 50 ppm): 60%; % controlled, Bo ci. (Botry tris cinerea; 100 ppm): 60%; % controlled, Bo.do (Ma.) ([1]; 50 ppm): 65%; % controlled, Bo.do (Ma.) ([1]; 100 ppm): 69%; % controlled, Glo. (Glomerella cingulata; 50 ppm): 80%; % controlled, Glo. (Glomerella cingulata; 100 ppm): 80%; % controlled, Py. or. (Pyricalaria oryzae; 50 ppm): 70%; % controlled, Py. or. (Pyricalaria oryzae; 100 ppm): 75%; % controlled, Phy ca. (Phytophthora capsisi; 50 ppm): 80%; % controlled, Phy ca. (Phytophthora capsisi; 100 ppm): 90%; % controlled, Phy ba. (Physalospora baccae; 50 ppm): 60%; % controlled, Phy ba. (Physalospora baccae; 100 ppm): 75%; % controlled, Rhi. sp. (Rhizopus sp.; 50 ppm): 80%; % controlled, Rhi. sp. (Rhizopus sp.; 100 ppm): 90%; % controlled, Al. (Alternaria mali; 50 ppm): 100%; % controlled, Al. (Alternaria mali; 100 ppm): 100%; % controlled, Rhy. so. (Rhizoctonia solani; 50 ppm): 100%; % controlled, Rhy. so. (Rhizoctonia solani; 100 ppm): 100%
C=CC[Si](C[Si](C)(Cn1cncn1)c1ccc(OCC)cc1)(c1ccccc1)c1ccc(-c2ccccc2)cc1 (stereo not shown) [6-(4-ethoxyphenyl)-6-methyl-4-phenyl-4-(4-phenylphenyl-4,6-disila-7-(1H-1,2,4-triazol-1-yl)-1-heptane] | 80% | 80% | 80% | 85% | 100% | 100% | 80% | 90% | 75% | 85% | 60% | 70% | 100% | 100% | 75% | 75% | 100% | 100% | 100% | 100% | –
CCOc1ccc([Si](C)(Cn2cncn2)C[Si](C)(C)c2ccc(F)cc2)cc1 (stereo not shown) [2-(4-ethoxyphenyl)-4-(4-fluorophenyl)-2,4-dimethyl-2,4-disila-1-(1H-1,2,4-triazol-1-yl)pentane] | 41% | 45% | 0% | 0% | 40% | 46% | 67% | 69% | 64% | 64% | 9% | 9% | 28% | 28% | 29% | 32% | 38% | 44% | 74% | 89% | –
C=CC[Si](C)(Cn1cncn1)C[Si](CC=C)(c1ccc(F)cc1)c1ccc(F)cc1 (stereo not shown) [6,6-bis(4-fluorophenyl)-4-methyl-4,6-disila-4-(1H-1,2,4-triazol-1-ylmethyl)-1,8-nonadiene] | 100% | 100% | 86% | 100% | 100% | 100% | 100% | 100% | 85% | 100% | 21% | 100% | 60% | 80% | 100% | 100% | 78% | 100% | 75% | 87% | –
C[Si](C)(C[Si](C)(Cn1cncn1)c1ccc(Cl)cc1)c1ccc(Cl)cc1 (stereo not shown) [2,4-bis(4-chlorophenyl)-2,4-dimethyl-2,4-disila-1-(1H-1,2,4-triazol-1-yl)pentane] | 48% | 57% | 33% | 41% | 80% | 82% | 70% | 76% | 27% | 27% | 16% | 22% | 34% | 37% | 31% | 40% | 54% | 69% | 28% | 42% | –
C[Si](C)(C[Si](Cn1cncn1)(c1ccc(F)cc1)c1ccc(F)cc1)c1ccc(-c2ccccc2)cc1 [2,2-bis(4-fluorophenyl)-4-(4-phenylphenyl)-4-methyl-2,4-disila-1-(1H-1,2,4-triazol-1-yl)pentane] | 41% | 41% | 18% | 23% | 47% | 49% | 71% | 73% | 54% | 57% | 6% | 9% | 28% | 32% | 29% | 29% | 46% | 46% | 65% | 67% | –
C[Si](C)(C[Si](C)(Cn1cncn1)c1ccc(F)cc1)c1ccc(F)cc1 (stereo not shown) [2,4-bis(4-fluorophenyl)-2,4-dimethyl,2,4-disila-1-(1H-1,2,4-triazol-1-yl)pentane] | 35% | 38% | 0% | 10% | 40% | 43% | 72% | 73% | 50% | 54% | 3% | 6% | 22% | 22% | 24% | 26% | 38% | 44% | 57% | 60% | –
